Reference: patent US11180444B2, “Polyimino ketoaldehydes” (NOVUM SPERO LTD., priority 2017, dated 2021)
“Also recorded” adds a separate entry of the source.

Experiments:
[1] = system: Avian Pathogenic Escherichia coli multi-resistant strain; assay: Inhibition zones, disc test; assay type: cell-based
[2] = system: gram-positive and gram-negative bacteria including multi-resistant bacteria; assay: In vitro testing of antibacterial properties; assay type: cell-based

CC1(C)S[C@@H]2[C@H](NC(=O)[C@H](N)c3ccc(O)cc3)C(=O)N2[C@H]1C(=O)O [Amoxicillin, reference compound]
zone of inhibition at 25 µg/disc ([1]; Escherichia coli, 25 μg per disc): 0 mm

Trimethoprim sulphate [reference compound]
Inhibition zone ([1]; 1.25 μg + 23.75 μg per disc): 0 mm

1-amino-tetratriacontyl-henicosa-20-on-21-al [CM]
Inhibition zone ([1]; 10 μL of solution (350 μg/1 μL) per disc): 8 mm | Inhibition zone ([1]; 15 μL of solution (350 μg/1 μL) per disc): 9 mm | Inhibition zone ([1]; 20 μL of solution (350 μg/1 μL) per disc): 10 mm | Inhibitory activity against the strain (in words) ([1]; compared with antibiotics in their standard dose): has an effect on the inhibition; also recorded: shows inhibitory activity | Antibacterial properties (in words) [2]: shows antibacterial properties

Cc1cc(C)nc(NS(=O)(=O)c2ccc(N)cc2)n1 [Sulfadimidine, reference compound]
zone of inhibition at 300 µg/disc ([1]; Escherichia coli, 300 μg per disc): 0 mm

CN(C)[C@@H]1C(O)=C(C(N)=O)C(=O)[C@@]2(O)C(O)=C3C(=O)c4c(O)cccc4[C@@](C)(O)[C@H]3C[C@@H]12 [Tetracycline, reference compound]
zone of inhibition at 30 µg/disc ([1]; Escherichia coli, read-out: Inhibition zone): 0 mm
